In patent US9829499B2, “Method and related systems for use with a fluidics device” (SciKon Innovation, Inc., priority 2015, dated 2017):
Read-outs that look alike come from different tables or passages of the source. Blank lines part the entries; values can stand above or below the compound they belong to.

What was measured:
HepG2 cells [1] = tested on: HepG2 cells
Procedure: (§1) To compare the effects of flow on response of HepG2 cells to Tamoxifen, cells were treated in the wells of the fluidics device where the drug was applied either to the source well at two different rates (2× and 3×), or was applied directly to individual wells in the absence of flow (static). For each condition, HepG2 cells were seeded into the individual wells of the fluidics device at a density of 30,000 cells per well in 50 uL media. This density corresponded to approximately 60% confluence. […] HepG2 cells in a fluidics device were treated with increasing concentrations of Tamoxifen over time. 150 uM of Tamoxifen was infused into the source well of the fluidics device either 2 times per day (2×) or three times per day (3×). Two acellular rows were infused with 1 uM Fluorscein to enable calculation of absolute concentration at any given time. The reagent CellTox™ Green was used to monitor cellular toxicity. Area under the curve values for each timepoint were obtained and plotted against effect expressed as a % maximum of (treated/control). Data was pooled together to obtain a single plot. EC50 values were calculated by a Sigmoid EMax model in PKSolver.
(§2) For the 2× and 3× experiment, to utilize Fluorescein as a standard for concentration, rows A and B remained acellular. After acclimating one day, media was changed to media containing a 1:2000 dilution of CellTox™ Green using volume of 100 uL per well. 400 uL of CellTox™ Green containing media was also added to the source well. Fluidic connections were allowed to form and stabilize for 30 minutes at 37° C. in a humidified incubator. Once fluid connections in each row was confirmed, 200 uL of media containing CellTox™ Green with either 150 uM Tamoxifen in 0.1% DMSO or 0.1% DMSO alone was added to the source well. To rows A&B, 200 uL of 1 uM Fluorescein in 0.1% DMSO was added to the source well. For all conditions, fluorescence was monitored using a Tecan Infinite Pro M1000 multimode plate reader optimized for Z-heights focal plane. For the 2× and 3× plates, media flow was maintained by syphoning 100 uL from well 11 and applying 100 uL fresh dosing solution to the source well at cadence corresponding to twice pre day (2×) or three times per day (3×).
(§3) For static fluid conditions, after seeding, cells acclimated for one day and then media was changed to 50 uL of media containing the noted concentration of Tamoxifen in 0.1% DMSO or 0.1% DMSO alone. Incubation proceeded for 24 hours where analysis of fluorescence determined the degree of cell death in each well. Nine replicates of each concentration were averaged.
(§4) For determining the concentration at any given time in the 2× and 3× flow plates, the RFU values obtained from the a-cellular Fluorescein control rows were averaged for each column and an actual Fluorescein concentration was determined using the Fluorescein Standard curve (see FIG. 33). The starting concentration of Fluorescein was 1 uM and the starting concentration of Tamoxifen was 150 uM therefore, the amount of fluorescein in each well was multiplied by 150 to obtain the corresponding concentration of Tamoxifen. The area under the curve (AUC) for each timepoint was obtained by multiplying the concentration value by the time in hours since the last time point using the AUCt function in PKSolver. For static conditions, the concentration was constant for the entire treatment time, therefore to obtain AUC the concentration was multiplied by 24 hours. […]

cultured cells = assay: Viable cells by CellTiter-Glo, static plates versus fluidics device cultured cells treated over 7 and 9 days; type: cell-based
Text: Referring to FIG. 46, a comparison of static plates and fluidics device 100 cultured cells treated with acetaminophen (APAP) over 7 and 9 days is depicted. CellTiter-Glo was used to measure viable cells. Data is normalized to vehicle (DMSO) control.

HepG2 cells [2] = assay: Cytotoxicity of HepG2 cells with CellTox Green, fluidics device (flow) versus static culture, EC50 based on AUC exposure
Procedure: as §1, §2, §3, §4

Observed EC-50 in downstream wells versus expected when using standard static culture methods (HepG2 cells [1]): different from expected
Structure (SMILES): CC(=O)Nc1ccc(O)cc1 [APAP, Acetaminophen]
what the observed EC50 suggests (effect of metabolism on cytotoxicity) (HepG2 cells [1]): bio-activation of a toxic intermediate
toxicity (viable cells, normalized to vehicle control) (cultured cells; fluidics device, Day 7): downstream cell death effect
toxicity (viable cells, normalized to vehicle control) (cultured cells; fluidics device, Day 9): More pronounced downstream metabolite effect
toxicity (viable cells, normalized to vehicle control) (cultured cells; static plate, Day 9, 2.5 mM): marginal effect
toxicity (viable cells, normalized to vehicle control) (cultured cells; static plate, Day 9, highest concentration 5 mM): obvious cell death
toxicity (viable cells, normalized to vehicle control) (cultured cells; static plates, Day 7): marginally detectable only at highest concentration

Structure (SMILES): CC/C(=C(\c1ccccc1)c1ccc(OCCN(C)C)cc1)c1ccccc1 [Tamoxifen]
sensitivity of HepG2 cells in the flow system relative to static systems (comparison of AUC EC-50s) (HepG2 cells [2]; CellTox Green, flow system less sensitive than static): approximately 4 fold
Observed EC-50 in downstream wells versus expected when using standard static culture methods (HepG2 cells [2]; fluidics device downstream wells): different from expected
what the observed EC50 suggests (effect of metabolism on cytotoxicity) (HepG2 cells [2]; fluidics device downstream wells versus static): deactivation
